Substitutions are numbered along the chain they refer to. Several values for one entry are separate records, joined by “and”; a condition that tells them apart may be missing. Equal values may be shown once.
Columns and labels:
[1] = molecular target: T1, GR (Homo sapiens, UniProt P04150); test: GR transactivation, MMTV-driven luciferase reporter (MMTV-Luc) in AD293 cells; format: cell-based; parameters: expressed in transfected cells; host or cells: AD293; details: transactivation assay, FIG. 3B
T1 sequence (P04150 1-777): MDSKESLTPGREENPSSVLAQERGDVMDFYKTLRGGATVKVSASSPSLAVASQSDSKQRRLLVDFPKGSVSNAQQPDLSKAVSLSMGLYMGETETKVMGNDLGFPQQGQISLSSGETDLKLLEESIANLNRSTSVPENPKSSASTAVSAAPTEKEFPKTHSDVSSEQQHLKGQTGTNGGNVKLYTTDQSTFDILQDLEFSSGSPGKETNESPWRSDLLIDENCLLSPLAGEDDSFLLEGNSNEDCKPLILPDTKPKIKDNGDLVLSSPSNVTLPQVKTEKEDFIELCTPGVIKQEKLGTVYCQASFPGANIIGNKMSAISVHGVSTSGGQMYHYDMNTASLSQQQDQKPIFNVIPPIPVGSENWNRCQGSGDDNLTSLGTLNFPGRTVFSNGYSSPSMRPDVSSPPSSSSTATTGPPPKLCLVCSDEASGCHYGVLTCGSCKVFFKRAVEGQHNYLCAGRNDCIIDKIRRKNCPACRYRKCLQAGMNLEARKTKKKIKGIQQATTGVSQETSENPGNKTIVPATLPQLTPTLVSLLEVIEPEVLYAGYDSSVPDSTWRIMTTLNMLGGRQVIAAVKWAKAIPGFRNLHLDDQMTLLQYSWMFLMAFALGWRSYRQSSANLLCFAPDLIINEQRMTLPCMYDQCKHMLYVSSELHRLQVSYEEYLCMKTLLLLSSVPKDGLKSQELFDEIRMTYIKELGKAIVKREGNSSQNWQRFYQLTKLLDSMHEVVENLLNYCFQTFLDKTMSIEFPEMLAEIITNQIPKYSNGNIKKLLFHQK
Experimental: (§1) AD293 cells were split at 20,000/well in 24 well plate one day before transfection. For transactivation, 100 ng pHHLuc (MMTV-Luc) plasmid, 0.1 ng pRShGR together with 5 ng phRGtkRenilla were transfected by X-tremeGENE 9 (Roche) into AD293 cells per well. For transreperssion, 10 ng AP1-Luc, 100 ng pRShGR and 5 ng phRGtkRenilla were transfected into AD293 cells per well. One day after transfection, cells were induced by different treatment (steroids or vehicle) 16 hrs overnight. Cells were harvest by 1× passive lysis buffer (Promega), luciferase activity was assayed by the Dual-Glo Luciferase system (Promega). Data were plotted by Luciferase Value/Renilla Value, as Relative Luciferase Unit (RLU).

[2] = molecular target: T1, GR; test: Determination of induction activity, MMTV-Luc reporter in AD293 cells transfected with pRShGR (Table 3, FIG. 14); details: for RLU / RLU/Renilla: single replicate wells; for activation at 0.01 µM / activation at 1 µM: AD293, 16 h, read-out: % to Dex induction; for fold induction at 0.01 µM / fold induction at 1 µM: AD293, read-out: Steroid Fold Induction; for % to Dex induction: relative to DEX 1000 nM
Experimental: as §1
AD293 cells were transfected with 0.1 ng pRShGR, 100 ng MMTV-Luc reporter, and 10 ng TK-Renilla internal control per well in a 24-well plate. One day after transfection, cells were induced by candidate compounds at a concentration of 10 nm or 1 um (see FIG. 14). Cells were harvested and luciferase activity was measured by Promega Dual Luciferacse kit.

[3] = molecular target: T1, GR; test: Potency of candidate compounds in MMTV-luciferase reporter, full dose-response (FIG. 16A); format: cell-based; parameters: expressed in transfected cells; host or cells: AD293; details: doses 0.01 nM to 1000 nM
Excerpt: To evaluate the potency of candidate compounds in a reporter system, an MMTV-luciferase reporter was used.

[4] = system: OVA-induced mouse asthma model; test: OVA-induced mouse asthma model, lung function (RL) by FlexiVent; format: in vivo
Experimental: A OVA-induced mouse asthma model was used to examine the anti-inflammatory effect of candidate compounds. 7-9 weeks old Balb/c mice were primarily immunized with OVA (ovalbumin). […] Related Lung (RL) function in response to acetylcholine was measured by the forced oscillation techniques with the FlexiVent system (SCIREQ).
To evaluate the effect of candidate compounds in repressing lung inflammation, a OVA-induced mouse asthma model was used (RL: relative lung function).

[5] = molecular target: T2, GR Q642N (Homo sapiens, UniProt P04150, Q642N); test: Transactivation on MMTV-Luc in AD293 cells, GR Q642N mutant; format: cell-based; details: compared with wild type, up to saturation concentration
T2 construct: expressed in transfected cells; host or cells: AD293
T2 sequence (P04150 1-777 Q642N): T1 sequence (P04150 1-777) with Q642N
Experimental: as §1

| leftward shift of the cortisol dose-response curve [1] | Compound | Mean (RLU/Renilla) ([2]; 10 nM) | RLU ([2]; 10 nM) | RLU/Renilla ([2]; 10 nM) | Mean (RLU/Renilla) ([2]; 1000 nM) | RLU ([2]; 1000 nM) | RLU/Renilla ([2]; 1000 nM) | activation at 0.01 µM [2] [%] | activation at 1 µM [2] [%] | fold induction at 0.01 µM [2] | fold induction at 1 µM [2] | potency compared with VSGC12 and DEX [3] | repression of lung inflammation compared with VSGC12 ([4]; 0.125 mg/kg, FIG. 16B) | increase in potency over fluticasone furoate (FF) ([4]; FIG. 15) [fold] | potency in repressing lung inflammation compared with FF ([4]; FIG. 15, side by side comparison) | full dose-response curve of Q642N [5] | induction activity compared to other candidate compounds and VSGC12 ([2]; 10 nM) | % to Dex induction ([2]; 10 nM) [%] | % to Dex induction ([2]; 1000 nM) [%] |
| --- | --- | --- | --- | --- | --- | --- | --- | --- | --- | --- | --- | --- | --- | --- | --- | --- | --- | --- | --- |
| about 5 fold | C[C@]12C=CC(=O)C=C1CC[C@@H]1[C@@H]2[C@@H](O)C[C@@]2(C)[C@H]1CC[C@]2(O)C(=O)CO [prednisolone] | – | – | – | – | – | – | – | – | – | – | – | – | – | – | – | – | – | – |
| – | CON(C)C(=O)[C@@]1(OC(=O)c2ccco2)[C@H](C)CC2C3C=C(F)C4=Cc5c(cnn5-c5ccccc5)C[C@]4(C)[C@@]3(F)C(O)C[C@@]21C (stereo partly shown) [VSGC12, reference compound] | 1.402 | 316,240 and 298,600 and 289,480 | 1.598 and 1.522 and 1.085 | 1.682 | 331,400 and 309,120 and 312,400 | 1.767 and 1.765 and 1.513 | 97.8 | 117 | 28.4 | 34.1 | – | – | – | – | – | – | – | – |
| – | C[C@@H]1CC2C3C=C(F)C4=Cc5c(cnn5-c5ccccc5)C[C@]4(C)[C@@]3(F)C(O)C[C@]2(C)[C@@]1(OC(=O)c1ccco1)C(=O)OC(C)(C)C (stereo partly shown) [Compound 6] | 1.417 | 353,720 and 347,400 and 378,600 | 1.291 and 1.356 and 1.605 | 1.614 | 385,840 and 290,120 and 330,680 | 1.694 and 1.490 and 1.659 | 98.8 | 113 | 28.7 | 32.7 | – | – | – | – | – | – | – | – |
| – | C[C@@H]1CC2C3C=C(F)C4=Cc5c(cnn5-c5ccccc5)C[C@]4(C)[C@@]3(F)C(O)C[C@]2(C)[C@@]1(OC(=O)c1ccco1)C(=O)OCF (stereo partly shown) [Compound 4] | 1.332 | 288,320 and 249,160 and 244,360 | 1.518 and 1.258 and 1.222 | 1.153 | 222,960 and 225,280 and 226,280 | 1.178 and 1.134 and 1.147 | 92.9 | 80.4 | 27 | 23.4 | higher potency | much higher repression activity | 8 | much more potent | – | – | – | – |
| – | C[C@]12CCC(=O)C=C1CC[C@@H]1[C@@H]2[C@@H](O)C[C@@]2(C)[C@H]1CC[C@]2(O)C(=O)CO [cortisol, Cortisol] | – | – | – | – | – | – | – | – | – | – | – | – | – | – | inactive | – | – | – |
| – | CCOC(=O)[C@@]1(OC(=O)c2ccco2)[C@H](C)CC2C3C=C(F)C4=Cc5c(cnn5-c5ccccc5)C[C@]4(C)[C@@]3(F)C(O)C[C@@]21C (stereo partly shown) [Compound 2] | 1.328 | 221,760 and 206,200 and 190,520 | 1.316 and 1.430 and 1.238 | 1.311 | 296,680 and 295,960 and 323,600 | 1.365 and 1.267 and 1.302 | 92.6 | 91.5 | 26.9 | 26.6 | – | – | – | – | – | – | – | – |
| – | CC(C)OC(=O)[C@@]1(OC(=O)c2ccco2)[C@H](C)CC2C3C=C(F)C4=Cc5c(cnn5-c5ccccc5)C[C@]4(C)[C@@]3(F)C(O)C[C@@]21C (stereo partly shown) [Compound 3] | 1.462 | 295,280 and 295,520 and 299,320 | 1.505 and 1.300 and 1.580 | 1.219 | 249,160 and 279,160 and 254,120 | 1.143 and 1.332 and 1.181 | 102 | 85 | 29.6 | 24.7 | – | – | – | – | – | – | – | – |
| – | C[C@@H]1CC2C3C=C(F)C4=Cc5c(cnn5-c5ccccc5)C[C@]4(C)[C@@]3(F)C(O)C[C@]2(C)[C@@]1(OC(=O)c1ccco1)C(=O)O (stereo partly shown) [Compound 1] | 0.119 | 21,720 and 17,200 and 24,320 | 0.116 and 0.093 and 0.149 | 0.806 | 186,480 and 180,880 and 219,480 | 0.642 and 0.818 and 0.959 | 8.33 | 56.2 | 2.42 | 16.4 | – | – | – | – | – | much lower induction activity | – | – |
| – | C[C@@H]1CC2C3C=C(F)C4=Cc5c(cnn5-c5ccccc5)C[C@]4(C)[C@@]3(F)C(O)C[C@]2(C)[C@@]1(OC(=O)c1ccco1)C(=O)SCF (stereo partly shown) [Compound 5] | 1.444 | 298,760 and 265,160 and 249,760 | 1.485 and 1.433 and 1.413 | 1.235 | 346,400 and 350,240 and 345,760 | 1.108 and 1.227 and 1.371 | 101 | 86.1 | 29.3 | 25 | – | – | – | – | – | – | – | – |
| – | C[C@@H]1C[C@H]2[C@@H]3CCC4=CC(=O)C=C[C@]4(C)[C@@]3(F)[C@@H](O)C[C@]2(C)[C@@]1(O)C(=O)CO [DEX, dexamethasone, reference compound] | – | – | – | – | – | – | – | – | – | – | – | – | – | – | – | – | 52.82 | 100 |

From US10954265B2 (Van Andel Research Institute, priority 2016, dated 2021)
